In ChEMBL document CHEMBL1201862, “PubChem BioAssay data set” (2004):
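Five compound concentrations were applied to cells in 96-well plates for 48 hours; endpoints were derived by simple linear interpolation of the resulting dose-response curve. Here, GI50 denotes the concentration required for 50% inhibition of growth.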 Active and inactive are the calls of the source. No stated cut-off is given here; in the data, active = GI50 up to about 1.1 µM and inactive = higher.

What was measured:
Assay in all cases: NCI tumour cell line growth inhibition, 48 h
HOP-92 = tested on: HOP-92
UACC-62 = tested on: UACC-62
HT-29 = tested on: HT-29
SNB-19 = tested on: SNB-19
U-251 = tested on: U-251
SK-MEL-2 = tested on: SK-MEL-2
SW-620 = tested on: SW-620
SNB-75 = tested on: SNB-75
MDA-MB-231 = tested on: MDA-MB-231
SF-539 = tested on: SF-539
SK-OV-3 = tested on: SK-OV-3
NCI-H460 = tested on: NCI-H460
UACC-257 = tested on: UACC-257
T47D = tested on: T47D
TK-10 = tested on: TK-10
A498 = tested on: A498
OVCAR-5 = tested on: OVCAR-5
NCI-H226 = tested on: NCI-H226
MCF7 = tested on: MCF7
HOP-62 = tested on: HOP-62
HCT-15 = tested on: HCT-15
K562 = tested on: K562
RXF 393 = tested on: RXF 393
MDA-N = tested on: MDA-N
OVCAR-8 = tested on: OVCAR-8
EKVX = tested on: EKVX
SF-268 = tested on: SF-268
SK-MEL-5 = tested on: SK-MEL-5
LOX IMVI = tested on: LOX IMVI
Malme-3M = tested on: Malme-3M
CCRF-CEM = tested on: CCRF-CEM
PC-3 = tested on: PC-3
HCT-116 = tested on: HCT-116
CAKI-1 = tested on: CAKI-1
A549 = tested on: A549
Hs-578T = tested on: Hs-578T
786-0 = tested on: 786-0
NCI-H522 = tested on: NCI-H522
HCC 2998 = tested on: HCC 2998
NCI-H23 = tested on: NCI-H23
UO-31 = tested on: UO-31
RPMI-8226 = tested on: RPMI-8226
SF-295 = tested on: SF-295
DU-145 = tested on: DU-145
MDA-MB-435 = tested on: MDA-MB-435
OVCAR-4 = tested on: OVCAR-4
BT-549 = tested on: BT-549
HL-60 = tested on: HL-60
COLO 205 = tested on: COLO 205
OVCAR-3 = tested on: OVCAR-3
NCI/ADR-RES = tested on: NCI/ADR-RES
ACHN = tested on: ACHN
SN12C = tested on: SN12C
SR = tested on: SR
M14 = tested on: M14
IGROV-1 = tested on: IGROV-1
MOLT-4 = tested on: MOLT-4
KM12 = tested on: KM12
SK-MEL-28 = tested on: SK-MEL-28

`Cc1ccc([S+]([O-])(=Nc2ccccc2)C(C(C)C)C(C)(C)Cl)cc1` (configuration not stated) was tested, and the GI50 (HOP-92) was 30.1 µM (inactive), the GI50 (UACC-62) was 30.9 µM (inactive) and the GI50 (HT-29) was 17.1 µM (inactive). For the same compound, the GI50 (SNB-19) was 8.67 µM (inactive), the GI50 (U-251) was 16.7 µM (inactive) and the GI50 (SK-MEL-2) was 12.5 µM (inactive). The GI50 (SW-620) was 20.9 µM (inactive), the GI50 (SNB-75) was > 50 µM (inactive) and the GI50 (MDA-MB-231) was 17.2 µM (inactive). For the same compound, the GI50 (SF-539) was 15.9 µM (inactive), the GI50 (SK-OV-3) was > 50 µM (inactive) and the GI50 (NCI-H460) was 4.21 µM (inactive). For the same compound, the GI50 (UACC-257) was 10.8 µM (inactive), the GI50 (T47D) was 23.6 µM (inactive) and the GI50 (TK-10) was 21.4 µM (inactive). The GI50 (A498) was 18.5 µM (inactive), the GI50 (OVCAR-5) was 22.1 µM (inactive) and the GI50 (NCI-H226) was 2.72 µM (inactive). For the same compound, the GI50 (MCF7) was 20.6 µM (inactive), the GI50 (HOP-62) was > 50 µM (inactive) and the GI50 (HCT-15) was 17 µM. The GI50 (K562) was 16.7 µM (inactive), the GI50 (RXF 393) was 30.1 µM (inactive) and the GI50 (MDA-N) was 16 µM (inactive). For the same compound, the GI50 (OVCAR-8) was > 50 µM (inactive), the GI50 (EKVX) was 11.4 µM (inactive) and the GI50 (SF-268) was 44.4 µM (inactive). The GI50 (SK-MEL-5) was 4.06 µM (inactive), the GI50 (LOX IMVI) was 25.2 µM (inactive) and the GI50 (Malme-3M) was 27.9 µM (inactive). The GI50 (CCRF-CEM) was 9.1 µM (inactive), the GI50 (PC-3) was 16.1 µM (inactive) and the GI50 (HCT-116) was 16.9 µM (inactive). For the same compound, the GI50 (CAKI-1) was 14.5 µM (inactive), the GI50 (A549) was 16.2 µM (inactive) and the GI50 (Hs-578T) was 29.6 µM (inactive). The GI50 (786-0) was 24.2 µM (inactive), the GI50 (NCI-H522) was 16 µM (inactive) and the GI50 (HCC 2998) was 21.6 µM (inactive). For the same compound, the GI50 (NCI-H23) was 9.91 µM (inactive), the GI50 (UO-31) was 18.8 µM (inactive) and the GI50 (RPMI-8226) was 14 µM (inactive). The GI50 (SF-295) was 16.3 µM (inactive), the GI50 (DU-145) was > 50 µM (inactive) and the GI50 (MDA-MB-435) was 10.7 µM (inactive). The GI50 (OVCAR-4) was 22.2 µM (inactive), the GI50 (BT-549) was 18.1 µM (inactive) and the GI50 (HL-60) was 7.67 µM (inactive). For the same compound, the GI50 (COLO 205) was 0.91 µM (active), the GI50 (OVCAR-3) was 29.6 µM (inactive) and the GI50 (NCI/ADR-RES) was 15 µM (inactive). The GI50 (ACHN) was 31.6 µM (inactive), the GI50 (SN12C) was 22.4 µM (inactive) and the GI50 (SR) was 16.1 µM (inactive). For the same compound, the GI50 (M14) was 18.9 µM (inactive), the GI50 (IGROV-1) was > 50 µM (inactive) and the GI50 (MOLT-4) was 10.5 µM (inactive). For the same compound, the GI50 (KM12) was 13.5 µM (inactive).

In the case of `CC1CCC2(C(=O)O)CCC3(C)C(=CCC4C5(C)CC(O)C(O)C(C)(CO)C5C(O)CC43C)C2C1C` (configuration not stated), the GI50 (HOP-92) is reported as 20.8 µM (inactive), the GI50 (UACC-62) is reported as 21.3 µM (inactive) and the GI50 (HT-29) is reported as > 88.5 µM (inactive). The GI50 (SNB-19) was 22.7 µM (inactive), the GI50 (U-251) was 21.6 µM (inactive) and the GI50 (SK-MEL-2) was 19.4 µM (inactive). For the same compound, the GI50 (SW-620) was > 100 µM (inactive), the GI50 (SNB-75) was 28.1 µM (inactive) and the GI50 (MDA-MB-231) was 39.9 µM (inactive). For the same compound, the GI50 (SF-539) was 39 µM (inactive), the GI50 (SK-OV-3) was > 100 µM (inactive) and the GI50 (NCI-H460) was > 100 µM (inactive). For the same compound, the GI50 (UACC-257) was 98.4 µM (inactive), the GI50 (T47D) was 37.4 µM (inactive) and the GI50 (TK-10) was > 100 µM (inactive). For the same compound, the GI50 (A498) was 24.3 µM (inactive), the GI50 (OVCAR-5) was > 100 µM (inactive) and the GI50 (NCI-H226) was > 79.6 µM (inactive). For the same compound, the GI50 (MCF7) was 41.5 µM (inactive), the GI50 (HOP-62) was 45.4 µM (inactive) and the GI50 (HCT-15) was greater than 100 µM. The GI50 (K562) was 41.1 µM (inactive), the GI50 (RXF 393) was 31.3 µM (inactive) and the GI50 (MDA-N) was 11.1 µM (inactive). The GI50 (OVCAR-8) was 21.1 µM (inactive), the GI50 (EKVX) was > 89.3 µM (inactive) and the GI50 (SF-268) was 28.5 µM (inactive). The GI50 (SK-MEL-5) was 41.8 µM (inactive), the GI50 (LOX IMVI) was 20.5 µM (inactive) and the GI50 (Malme-3M) was 47.5 µM (inactive). The GI50 (CCRF-CEM) was 19 µM (inactive), the GI50 (PC-3) was 83.6 µM (inactive) and the GI50 (HCT-116) was 5.65 µM (inactive). The GI50 (CAKI-1) was > 100 µM (inactive), the GI50 (A549) was > 100 µM (inactive) and the GI50 (Hs-578T) was 19.4 µM (inactive). For the same compound, the GI50 (786-0) was 3.29 µM (inactive), the GI50 (NCI-H522) was 17.5 µM (inactive) and the GI50 (HCC 2998) was 35.9 µM (inactive). For the same compound, the GI50 (NCI-H23) was 65.8 µM (inactive), the GI50 (UO-31) was > 100 µM (inactive) and the GI50 (RPMI-8226) was 33.4 µM (inactive). For the same compound, the GI50 (SF-295) was 74.5 µM (inactive), the GI50 (DU-145) was > 100 µM (inactive) and the GI50 (MDA-MB-435) was 45.6 µM (inactive). The GI50 (OVCAR-4) was > 100 µM (inactive), the GI50 (BT-549) was 31.7 µM (inactive) and the GI50 (HL-60) was 20.2 µM (inactive). The GI50 (COLO 205) was 50 µM (inactive), the GI50 (OVCAR-3) was 24.1 µM (inactive) and the GI50 (NCI/ADR-RES) was > 100 µM (inactive). The GI50 (ACHN) was > 100 µM (inactive), the GI50 (SN12C) was 2.12 µM (inactive) and the GI50 (SK-MEL-28) was 30.8 µM (inactive). For the same compound, the GI50 (SR) was 22.8 µM (inactive), the GI50 (M14) was > 100 µM (inactive) and the GI50 (IGROV-1) was 19.2 µM (inactive). The GI50 (MOLT-4) was 58.2 µM (inactive) and the GI50 (KM12) was 43.3 µM (inactive).
